≈ marks a conversion by molar mass, not a printed value. Structures can show the parent of a compound that is named as a salt. Where two headings read alike, the source gives them in different places.
Legend:
[1] = test system: lymphocytic leukemia P388; assay: in vivo lymphocytic leukemia P388 test; details: Mus musculus, P388, ip, 120 h, mice, survival time treated/control, read-out: P388 in vivo T/C×100; for response vs control in vivo at 25 mg/kg: Dose 25 mg/kg intraperitoneally once daily for five days; for response vs control in vivo at 50 mg/kg: Dose 50 mg/kg intraperitoneally once daily for five days; for response vs control in vivo at 100 mg/kg: Dose 100 mg/kg intraperitoneally once daily for five days; for response vs control in vivo at 12.5 mg/kg: Dose 12.5 mg/kg intraperitoneally once daily for five days; for response vs control in vivo at 6.25 mg/kg: Dose 6.25 mg/kg intraperitoneally once daily for five days
Protocol: Another test protocol is the in vivo lymphocytic leukemia P388 test. The animals used are either male or female CD2F, mice. There are six or seven animals per test group. The tumor transplant is by intraperitoneal injection of dilute ascitic fluid containing cells of lymphocytic leukemia P388. The test compounds are administered intraperitoneally once daily for five consecutive days at various doses following tumor inoculation. The animals are weighed and survivors are recorded on a regular basis for 30 days. A compound is designated "toxic" if, at a given dose, all animals died prior to four days after the first injection of drug. A ratio of survival time for treated (T)/control (C) animals is calculated. A criterion for efficacy is a ratio T/C times 100 greater than or equal to 125. See Cancer Chemotherapy Reports, Part 3, 3, 1 (1972) for a comprehensive discussion of the protocol.

Rhodotorula aurantiaca = assay: in vitro antibacterial (ABMF) microdilution susceptibility test; type: cell-based; details: Buckleyzyma aurantiaca, read-out: ABMF Minimal Inhibitory Concentration (µ/ml) R. aurant
Text: (§1) Still another test protocol is the in vitro antibacterial (ABMF) test which is a recognized standard microdilution susceptibility procedure in Mueller-Hinton broth against Gram-positive and Gram-negative bacterial test organisms. The procedure is a modification of a state-of-the-art procedure reported in Manual of Clinical Microbiology, Lennette, E. H., ed., by Barry, A. L. and C. Thornsberry at pages 463-474 and by Gavan, T. L. and A. L. Barry at pages 459―462, American Society for Microbiology, Washington, 1980.
(§2) In the test, a given bacterial culture is used to inoculate individual test wells of microdilution trays containing growth medium and test compound, the latter in a microdilution series: 1000, 333.111, 37,12, 4, 1.4, and 0.46 micrograms per milliliter. […] For convenience, values are reported for Escherichia coli, Corynebacterium Sp. ATCC 21698, Salmonella typhimurium, Streptococcus pneumoniae, and Rhodotorula aurantiaca.

Escherichia coli = assay: as above; type: cell-based; details: read-out: ABMF Minimal Inhibitory Concentration (µ/ml) E. coli
Text: as §1, §2

Salmonella typhimurium = assay: as above; type: cell-based; details: Salmonella enterica, Mueller-Hinton broth microdilution, 37°C, 16-24 hours, read-out: ABMF Minimal Inhibitory Concentration (µ/ml) S. typh.
Text: as §1, §2

Streptococcus pneumoniae = assay: as above; type: cell-based; details: Mueller-Hinton broth microdilution, 37°C, 16-24 hours, read-out: ABMF Minimal Inhibitory Concentration (µ/ml) S. pneum.
Text: as §1, §2

[2] = test system: Corynebacterium Sp. ATCC 21698; assay: as above; type: cell-based; details: ATCC21698, Mueller-Hinton broth microdilution, 37°C, 16-24 hours, read-out: ABMF Minimal Inhibitory Concentration (µ/ml) Coryn. sp.
Text: as §1, §2

L1210 cells = assay: L1210 in vitro cell growth inhibition; type: cell-based; details: Mus musculus, 72 h; L1210 murine leukemia cells, three days incubation, 50% inhibition of growth; read-out: L1210 in vitro ID50
Protocol: Another test protocol uses L1210 cells, a murine leukemia cell line, grown in RPMI 1640 supplemented with 5% fetal bovine serum and gentamicin ([…]). Drug dilutions are prepared in the appropriate solvent and 20 µl of each dilution are added to 24-well Linbro tissue culture plates, followed by the addition of 2.0 ml of cell suspension containing 3 x 10^4 cells per ml. Solvent and medium controls are included in each test. After incubation at 37°C for three days in 5% CO2, the contents of each well are removed and the cells counted in a ZBI Counter counter. Percent growth are calculated relative to the controls and the levels of drug activity are expressed as ID50 in moles per liter.

[3] = Mueller-Hinton broth microdilution, 37°C, 16-24 hours

SMILES: CCN(CC)CCn1nc2c3c(c([N+](=O)[O-])ccc31)Oc1ccc(OC)cc1-2 [Example 5, N,N-Diethyl-9-methoxy-5-nitro-2H-[1]benzopyrano-[4,3,2-cd]indazole-2-ethanamine, methanesulfonate (1: 1)]
- response vs control in vivo at 25 mg/kg [1]: 126%
- response vs control in vivo at 50 mg/kg [1]: 148%
- response vs control in vivo at 100 mg/kg [1]: 192%
- MIC (Rhodotorula aurantiaca): 111 µg/mL
- MIC (Escherichia coli; [3]): < 0.46 µg/mL
- MIC (Salmonella typhimurium): 111 µg/mL
- MIC (Streptococcus pneumoniae): < 0.46 µg/mL
- MIC [2]: < 0.46 µg/mL
- IC50 (L1210 cells): 920 nM

SMILES: CCN(CC)CCn1nc2c3c(c(NCCN)ccc31)Oc1ccc(OC)cc1-2 [Example 6, 1-[2-[2-(Diethylamino)ethyl]-9-methoxy-2H-[1]benzopyrano-[4,3,2-cd]ndazole-5-yl]-1,2-ethanediamine, trihydrobromide]
- response vs control in vivo at 12.5 mg/kg [1]: 154%
- response vs control in vivo at 25 mg/kg [1]: 145%
- MIC (Rhodotorula aurantiaca; [3]): 333 µg/mL
- MIC (Escherichia coli): 111 µg/mL
- MIC (Salmonella typhimurium): 111 µg/mL
- MIC (Streptococcus pneumoniae): 12.3 µg/mL
- MIC [2]: 4.1 µg/mL
- IC50 (L1210 cells): 1100 nM

SMILES: COc1ccc2c(c1)-c1nn(CCCN(C)C)c3ccc([N+](=O)[O-])c(c13)O2 [Example 7, 9-Methoxy-N,N-dimethyl-5-nitro-2H-[1]benzopyrano[4,3,2-cd]indazole-2-propanamine, methanesulfonate (1:1.17)]
- response vs control in vivo at 50 mg/kg [1]: 134%
- response vs control in vivo at 100 mg/kg [1]: 159%
- response vs control in vivo at 200 mg/kg ([1]; Dose 200 mg/kg intraperitoneally once daily for five days): 218%
- MIC (Rhodotorula aurantiaca; [3]): 1000 µg/mL
- MIC (Escherichia coli; [3]): 4.1 µg/mL
- MIC (Salmonella typhimurium): 111 µg/mL
- MIC (Streptococcus pneumoniae): < 0.46 µg/mL
- MIC [2]: < 0.46 µg/mL
- IC50 (L1210 cells): 580 nM

SMILES: COc1ccc2c(c1)-c1nn(CCN3CCCC3)c3ccc([N+](=O)[O-])c(c13)O2.Cl [Example 8, 9-Methoxy-5-nitro-2-[2-(1-pyrrolidinyl)ethyl]-2H-[1]benzopyrano[4,3,2-cd]indazole, monohydrochloride]
- MIC (Rhodotorula aurantiaca; [3]): 111 µg/mL
- MIC (Escherichia coli; [3]): > 1000 µg/mL
- MIC (Salmonella typhimurium): 37 µg/mL
- MIC (Streptococcus pneumoniae): < 0.46 µg/mL
- MIC [2]: < 0.46 µg/mL
- IC50 (L1210 cells): 2000 nM

SMILES: COc1ccc2c(c1)-c1nn(CCN3CCCC3)c3ccc(N)c(c13)O2 [Example 9, 9-Methoxy-2-[2-(1-pyrrolidinyl)ethyl]-2H-[1]benzopyrano[4,3,2-cd]indazole-2-amine, monohydrochloride]
- MIC (Rhodotorula aurantiaca; [3]): 333 µg/mL
- MIC (Escherichia coli; [3]): 12.3 µg/mL
- MIC (Salmonella typhimurium): 111 µg/mL
- MIC (Streptococcus pneumoniae): 4.1 µg/mL
- MIC [2]: 4.1 µg/mL
- IC50 (L1210 cells): 360 nM

SMILES: O=[N+]([O-])c1ccc2c3c(nn2CCN2CCCC2)-c2cc(O)ccc2Oc13 [Example 10, 5-Nitro-2[2-(1-pyrrolidinyl)ethyl]-2H-[1]benzopyrano[4,3,2-cd]indazole-9-ol, methanesulfonate]
- MIC (Rhodotorula aurantiaca; [3]): 1000 µg/mL
- MIC (Escherichia coli; [3]): > 1000 µg/mL
- MIC (Salmonella typhimurium): 1.4 µg/mL
- MIC (Streptococcus pneumoniae): < 0.46 µg/mL
- MIC [2]: < 0.46 µg/mL
- IC50 (L1210 cells): 3.5 nM

SMILES: CN(C)CCCn1nc2c3c(c([N+](=O)[O-])ccc31)Oc1ccc(O)cc1-2.CS(=O)(=O)O [Example 11, 9-Hydroxy-N,N-dimethyl-5-nitro-2H-[1]benzopyrano[4,3,2-cd]indazole-2-propanamine, methanesulfonate (1:1)]
- response vs control in vivo at 6.25 mg/kg [1]: 150%
- response vs control in vivo at 12.5 mg/kg [1]: 200%
- response vs control in vivo at 25 mg/kg [1]: 226%
- MIC (Rhodotorula aurantiaca; [3]): 1000 µg/mL
- MIC (Escherichia coli; [3]): < 0.46 µg/mL
- MIC (Salmonella typhimurium): 12.3 µg/mL
- MIC (Streptococcus pneumoniae): < 0.46 µg/mL
- MIC [2]: < 0.46 µg/mL
- IC50 (L1210 cells): 15 nM

SMILES: CCN(CC)CCn1nc2c3c(c(N)ccc31)Oc1ccc(O)cc1-2.Cl.Cl [Example 12, 5-Amino-N,N-diethyl-9-hydroxy-2H-[1]benzopyrano[4,3,2-cd]indazole-2-ethanamine, dihydrochloride]
- response vs control in vivo at 6.25 mg/kg [1]: 167%
- response vs control in vivo at 12.5 mg/kg [1]: 201%
- response vs control in vivo at 25 mg/kg [1]: 192%
- MIC (Rhodotorula aurantiaca; [3]): > 1000 µg/mL
- MIC (Escherichia coli): 111 µg/mL
- MIC (Salmonella typhimurium): 111 µg/mL
- MIC (Streptococcus pneumoniae): 12.3 µg/mL
- MIC [2]: 12.3 µg/mL
- IC50 (L1210 cells): 71 nM

SMILES: CCN(CC)CCn1nc2c3c(c(NC(=O)CNCCO)ccc31)Oc1ccc(O)cc1-2.Cl [Example 13, N-[2-[2-(Diethylamino)ethyl]-9-hydroxy-2H-[1]benzopyrano[4,3,2-cd]indazole-5-yl]-2-[(2-hydroxyethyl)-amino]acetamide, hydrochloride]
- response vs control in vivo at 25 mg/kg [1]: 198%
- response vs control in vivo at 50 mg/kg [1]: 227%
- response vs control in vivo at 100 mg/kg [1]: 272%
- MIC (Rhodotorula aurantiaca; [3]): > 1000 µg/mL
- MIC (Escherichia coli; [3]): 111 µg/mL
- MIC (Salmonella typhimurium): > 1000 µg/mL
- MIC (Streptococcus pneumoniae): 333 µg/mL
- MIC [2]: 333 µg/mL
- IC50 (L1210 cells): 5.7 nM

SMILES: CCN(CC)CCn1nc2c3c(c(NCCNCCO)ccc31)Oc1ccc(O)cc1-2 [Example 14]
- response vs control in vivo at 6.25 mg/kg [1]: 236%
- response vs control in vivo at 12.5 mg/kg [1]: 272%
- MIC (Rhodotorula aurantiaca; [3]): > 33 µg/mL
- MIC (Escherichia coli; [3]): 11 µg/mL (≈ 25.8 µM)
- MIC (Salmonella typhimurium): > 33 µg/mL
- MIC (Streptococcus pneumoniae): 11 µg/mL (≈ 25.8 µM)
- MIC [2]: 33 µg/mL (≈ 77.5 µM)
- IC50 (L1210 cells): 48 nM

SMILES: O=[N+]([O-])c1ccc2c3c(nn2CCNCCO)-c2cc(O)ccc2Oc13 [Example 15, 2-[2-[(2-Hydroxyethyl)amino]ethyl]-5-nitro-2H-[1]benzopyrano[4,3,2-cd]indazol-9-01, hydrochloride]
- response vs control in vivo at 12.5 mg/kg [1]: 190%
- response vs control in vivo at 25 mg/kg [1]: 218%
- response vs control in vivo at 50 mg/kg [1]: 230%
- MIC (Rhodotorula aurantiaca; [3]): 1000 µg/mL
- MIC (Escherichia coli; [3]): > 0.46 µg/mL
- MIC (Salmonella typhimurium): 12.3 µg/mL
- MIC (Streptococcus pneumoniae): 1.4 µg/mL
- MIC [2]: 1.4 µg/mL
- IC50 (L1210 cells): 15 nM

SMILES: Cl.Nc1ccc2c3c(nn2CCNCCO)-c2cc(O)ccc2Oc13 [Example 16, 5-Amino-2-[2-[(2-hydroxyethyl)amino]ethyl]-2H-[1]benzopyrano[4,3,2-cd]indazol-9-ol, hydrochloride]
- response vs control in vivo at 6.25 mg/kg [1]: 165%
- response vs control in vivo at 12.5 mg/kg [1]: 200%
- response vs control in vivo at 25 mg/kg [1]: 260%
- MIC (Rhodotorula aurantiaca; [3]): > 1000 µg/mL
- MIC (Escherichia coli; [3]): 4.1 µg/mL
- MIC (Salmonella typhimurium): 37 µg/mL
- MIC (Streptococcus pneumoniae): 37 µg/mL
- MIC [2]: 12.3 µg/mL
- IC50 (L1210 cells): 120 nM

SMILES: CCN(CC)CCn1nc2c3c(c([N+](=O)[O-])ccc31)Oc1cc(OC)ccc1-2 [Example 19, 5-Nitro-2-[2-(diethylamino)ethyl]-8-methoxy-2H [1]benzopyrano[4,3,2-cd]indazol, hydrochloride]
- MIC (Rhodotorula aurantiaca; [3]): 333 µg/mL
- MIC (Escherichia coli; [3]): < 0.46 µg/mL
- MIC (Salmonella typhimurium): 37 µg/mL
- MIC (Streptococcus pneumoniae): < 0.46 µg/mL
- MIC [2]: < 0.46 µg/mL
- IC50 (L1210 cells): 2200 nM

SMILES: CCN(CC)CCn1nc2c3c(c([N+](=O)[O-])ccc31)Oc1cc(O)ccc1-2 [Example 20, 5-Nitro-2-[2-(diethylamino)ethyl]-2H-[1]benzopyrano[4,3,2-cd]indazol-8-0l, hydrochloride]
- MIC (Rhodotorula aurantiaca; [3]): > 1000 µg/mL
- MIC (Escherichia coli; [3]): 1.4 µg/mL
- MIC (Salmonella typhimurium): 12.3 µg/mL
- MIC (Streptococcus pneumoniae): < 0.46 µg/mL
- MIC [2]: < 0.46 µg/mL
- IC50 (L1210 cells): 870 nM

Reference: patent publication EP0172632B1, “Benzopyrano[4,3,2-cd]indazole compounds, processes for their production and pharmaceutical compositions comprising the compounds” (WARNER-LAMBERT COMPANY, priority 1984, dated 1986)
